According to patent publication US8445492B2, “Method for inhibiting growth of cancer cells and cell telomere and diseases of cell proliferation by using heteroannelated anthraquinone derivative compounds” (National Defense Medical Center, priority 2008, dated 2013):

How the values were obtained:
Assay type in all cases: cell-based
SF-268 = assay: NCI DTP in-vitro dose response, CNS Cancer
SF-295 = assay: NCI DTP in-vitro dose response, CNS Cancer
SF-539 = assay: NCI DTP in-vitro dose response, CNS Cancer
SNB-19 = assay: NCI DTP in-vitro dose response, CNS Cancer
SNB-75 = assay: NCI DTP in-vitro dose response, CNS Cancer
U251 = assay: NCI DTP in-vitro dose response, CNS Cancer
COLO 205 = assay: NCI DTP in-vitro dose response, Colon Cancer
HCC-2998 = assay: NCI DTP in-vitro dose response, Colon Cancer
HCT-116 = assay: NCI DTP in-vitro dose response, Colon Cancer
HCT-15 = assay: NCI DTP in-vitro dose response, Colon Cancer
HT29 = assay: NCI DTP in-vitro dose response, Colon Cancer
KM12 = assay: NCI DTP in-vitro dose response, Colon Cancer
SW-620 = assay: NCI DTP in-vitro dose response, Colon Cancer

SMILES: O=C1c2ccccc2C(=O)c2c1ccc1nccnc21 [TABLE 5-4]
- CC50 (SF-268): > 100 µM
- TGI (SF-268): >1.00E−4
- Percent Growth (SF-268; Log10 Concentration −4.0): 1%
- Percent Growth (SF-268; Log10 Concentration −5.0): 34%
- Percent Growth (SF-268; Log10 Concentration −6.0): 86%
- Percent Growth (SF-268; Log10 Concentration −7.0): 92%
- Percent Growth (SF-268; Log10 Concentration −8.0): 96%
- GI50 (SF-268; read-out: GI50): 4.98 µM
- CC50 (SF-295): > 100 µM
- TGI (SF-295): 3.23E−5
- Percent Growth (SF-295; Log10 Concentration −4.0): −24%
- Percent Growth (SF-295; Log10 Concentration −5.0): 25%
- Percent Growth (SF-295; Log10 Concentration −6.0): 95%
- Percent Growth (SF-295; Log10 Concentration −7.0): 83%
- Percent Growth (SF-295; Log10 Concentration −8.0): 90%
- GI50 (SF-295; read-out: GI50): 4.35 µM
- CC50 (SF-539): > 100 µM
- TGI (SF-539): 5.37E−5
- Percent Growth (SF-539; Log10 Concentration −4.0): −9%
- Percent Growth (SF-539; Log10 Concentration −5.0): 23%
- Percent Growth (SF-539; Log10 Concentration −6.0): 64%
- Percent Growth (SF-539; Log10 Concentration −7.0): 88%
- Percent Growth (SF-539; Log10 Concentration −8.0): 90%
- GI50 (SF-539; read-out: GI50): 2.18 µM
- CC50 (SNB-19): > 100 µM
- TGI (SNB-19): >1.00E−4
- Percent Growth (SNB-19; Log10 Concentration −4.0): 4%
- Percent Growth (SNB-19; Log10 Concentration −5.0): 57%
- Percent Growth (SNB-19; Log10 Concentration −6.0): 90%
- Percent Growth (SNB-19; Log10 Concentration −7.0): 93%
- Percent Growth (SNB-19; Log10 Concentration −8.0): 94%
- GI50 (SNB-19; read-out: GI50): 13.4 µM
- CC50 (SNB-75): > 100 µM
- TGI (SNB-75): >1.00E−4
- Percent Growth (SNB-75; Log10 Concentration −4.0): 11%
- Percent Growth (SNB-75; Log10 Concentration −5.0): 53%
- Percent Growth (SNB-75; Log10 Concentration −6.0): 76%
- Percent Growth (SNB-75; Log10 Concentration −7.0): 87%
- Percent Growth (SNB-75; Log10 Concentration −8.0): 83%
- GI50 (SNB-75; read-out: GI50): 11.9 µM
- CC50 (U251): > 100 µM
- TGI (U251): 4.29E−5
- Percent Growth (U251; Log10 Concentration −4.0): −21%
- Percent Growth (U251; Log10 Concentration −5.0): 35%
- Percent Growth (U251; Log10 Concentration −6.0): 89%
- Percent Growth (U251; Log10 Concentration −7.0): 93%
- Percent Growth (U251; Log10 Concentration −8.0): 96%
- GI50 (U251; read-out: GI50): 5.38 µM

SMILES: CCc1nc2ccc3c(c2[nH]1)C(=O)c1ccccc1C3=O [TABLE 4-3]
- CC50 (COLO 205): > 100 µM
- TGI (COLO 205): >1.00E−4
- Percent Growth (COLO 205; Log10 Concentration −4.0): 9%
- Percent Growth (COLO 205; Log10 Concentration −5.0): 41%
- Percent Growth (COLO 205; Log10 Concentration −6.0): 85%
- Percent Growth (COLO 205; Log10 Concentration −7.0): 93%
- Percent Growth (COLO 205; Log10 Concentration −8.0): 93%
- GI50 (COLO 205; read-out: GI50): 6.36 µM
- CC50 (HCC-2998): > 100 µM
- TGI (HCC-2998): >1.00E−4
- Percent Growth (HCC-2998; Log10 Concentration −4.0): 22%
- Percent Growth (HCC-2998; Log10 Concentration −5.0): 59%
- Percent Growth (HCC-2998; Log10 Concentration −6.0): 90%
- Percent Growth (HCC-2998; Log10 Concentration −7.0): 94%
- Percent Growth (HCC-2998; Log10 Concentration −8.0): 88%
- GI50 (HCC-2998; read-out: GI50): 17.4 µM
- CC50 (HCT-116): > 100 µM
- TGI (HCT-116): >1.00E−4
- Percent Growth (HCT-116; Log10 Concentration −4.0): 11%
- Percent Growth (HCT-116; Log10 Concentration −5.0): 42%
- Percent Growth (HCT-116; Log10 Concentration −6.0): 78%
- Percent Growth (HCT-116; Log10 Concentration −7.0): 95%
- Percent Growth (HCT-116; Log10 Concentration −8.0): 92%
- GI50 (HCT-116; read-out: GI50): 6.1 µM
- CC50 (HCT-15): > 100 µM
- TGI (HCT-15): >1.00E−4
- Percent Growth (HCT-15; Log10 Concentration −4.0): 8%
- Percent Growth (HCT-15; Log10 Concentration −5.0): 27%
- Percent Growth (HCT-15; Log10 Concentration −6.0): 69%
- Percent Growth (HCT-15; Log10 Concentration −7.0): 93%
- Percent Growth (HCT-15; Log10 Concentration −8.0): 90%
- GI50 (HCT-15; read-out: GI50): 2.82 µM
- CC50 (HT29): > 100 µM
- TGI (HT29): >1.00E−4
- Percent Growth (HT29; Log10 Concentration −4.0): 11%
- Percent Growth (HT29; Log10 Concentration −5.0): 48%
- Percent Growth (HT29; Log10 Concentration −6.0): 88%
- Percent Growth (HT29; Log10 Concentration −7.0): 100%
- Percent Growth (HT29; Log10 Concentration −8.0): 94%
- GI50 (HT29; read-out: GI50): 8.84 µM
- CC50 (KM12): > 100 µM
- TGI (KM12): >1.00E−4
- Percent Growth (KM12; Log10 Concentration −4.0): 13%
- Percent Growth (KM12; Log10 Concentration −5.0): 43%
- Percent Growth (KM12; Log10 Concentration −6.0): 89%
- Percent Growth (KM12; Log10 Concentration −7.0): 94%
- Percent Growth (KM12; Log10 Concentration −8.0): 98%
- GI50 (KM12; read-out: GI50): 7.15 µM
- CC50 (SW-620): > 100 µM
- TGI (SW-620): >1.00E−4
- Percent Growth (SW-620; Log10 Concentration −4.0): 6%
- Percent Growth (SW-620; Log10 Concentration −5.0): 39%
- Percent Growth (SW-620; Log10 Concentration −6.0): 89%
- Percent Growth (SW-620; Log10 Concentration −7.0): 96%
- Percent Growth (SW-620; Log10 Concentration −8.0): 99%
- GI50 (SW-620; read-out: GI50): 5.97 µM
